{"source": "PubChem BioAssay AID608", "about": "(Sanford-Burnham Center for Chemical Genomics, 2007)", "note": "Calls of active or inactive are those of the source. The rule behind the calls is not given here.", "data": [{"molecular_target": "Peptidyl-prolyl cis-trans isomerase FKBP1A (Homo sapiens) (UniProt P62942)", "sequence (P62942 whole entry, looked up)": "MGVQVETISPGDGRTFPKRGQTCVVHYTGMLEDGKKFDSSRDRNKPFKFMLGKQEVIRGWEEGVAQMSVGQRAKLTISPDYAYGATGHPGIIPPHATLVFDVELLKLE", "assay": "small-molecule binding to FKBP12 – biophysical, NMR detection (AID 608)", "settings": "purified FKBP12", "values": [{"smiles": "COC(=O)c1c(OC)cc2c(c1C)Oc1c(Cl)c(OC(C)=O)c(Cl)c(C)c1C(=O)O2", "Kd": "> 4 mM (inactive)"}, {"smiles": "O=C(O)c1c[nH]c2ccccc12", "Kd": "> 4 mM (inactive)"}, {"smiles": "Nc1cccc(F)c1-c1ncon1", "Kd": "> 4 mM (inactive)"}, {"smiles": "Cc1cc(C(=O)NCc2cccs2)cs1", "Kd": "> 4 mM (inactive)"}, {"smiles": "O=S(=O)(Nc1cc(Cl)cc(Cl)c1)N1CCCCC1", "Kd": "inactive"}, {"smiles": "Nc1ccc(N2CCOCC2)c(Cl)c1", "Kd": "> 4 mM (inactive)"}, {"smiles": "CN(C)C(=S)Nc1ccc([N+](=O)[O-])cc1", "Kd": "> 4 mM (inactive)"}, {"smiles": "NC1=NCc2ccccc21", "Kd": "> 4 mM (inactive)"}, {"smiles": "C[C@H]1O[C@@H](O[C@H]2[C@@H](O)C[C@H](O[C@H]3[C@@H](O)C[C@H](O[C@H]4CC[C@]5(C)C6CC[C@]7(C)[C@@H](C8=CC(=O)OC8)CC[C@]7(O)C6CC[C@@H]5C4)O[C@@H]3C)O[C@@H]2C)C[C@H](O)[C@@H]1O", "note": "(some centres undefined)", "Kd": "> 4 mM (inactive)"}, {"smiles": "COC(=O)[C@@H]1OC(=O)[C@H]2O[C@@]23[C@@]1(C)CCC1[C@@]2(C)CCC(=O)C(C)(C)C2C[C@@H](OC(C)=O)[C@]13C", "note": "(some centres undefined)", "Kd": "> 4 mM (inactive)"}, {"smiles": "CC(=O)N(c1ccccc1)C1C=CS(=O)(=O)C1", "note": "(centres undefined)", "Kd": "> 4 mM (inactive)"}, {"smiles": "CC(C)Nc1nc2n(c(=O)n1)CCN2C(C)C", "Kd": "> 4 mM (inactive)"}, {"smiles": "Cc1cc([N+](=O)[O-])cc[n+]1[O-]", "Kd": "> 4 mM (inactive)"}, {"smiles": "COc1ccc(Cc2nnc3c4cnn(C)c4ncn23)cc1", "Kd": "> 4 mM (inactive)"}, {"smiles": "CC(=O)NC(=S)Nc1ccc(C(C)=O)cc1", "Kd": "> 4 mM (inactive)"}, {"smiles": "CC(NC(=O)c1ccco1)c1ccc2c(c1)OCCO2", "note": "(centres undefined)", "Kd": "> 4 mM (inactive)"}, {"smiles": "Cn1c(NCc2ccco2)nc2ccccc21", "Kd": "> 4 mM (inactive)"}, {"smiles": "CS(=O)(=O)N1CCN(c2ccccc2F)CC1", "Kd": "> 4 mM (inactive)"}, {"smiles": "O=C1CCC(c2cccs2)=NN1", "Kd": "> 4 mM (inactive)"}, {"smiles": "CCOc1ccc(C(=O)c2ccc(O)c(O)c2O)cc1", "Kd": "> 4 mM (inactive)"}, {"smiles": "OCc1cc(-c2cccs2)on1", "Kd": "> 4 mM (inactive)"}, {"smiles": "NS(=O)(=O)c1ccc(NC(=O)c2ccccc2F)cc1", "Kd": "> 4 mM (inactive)"}, {"smiles": "COc1cc2c(cc1OC)[C@@H]1C(=O)c3ccc(OC)c(CC=C(C)C)c3O[C@@H]1CO2", "Kd": "> 4 mM (inactive)"}, {"smiles": "O=S(=O)(Nc1ccc2c(c1)oc1ccccc12)N1CCCCC1", "Kd": "> 4 mM (inactive)"}, {"smiles": "c1ccc(-c2csc3ncn4nnnc4c23)cc1", "Kd": "> 4 mM (inactive)"}, {"smiles": "Cc1cccc(NC(=O)CN2C(=O)CNC2=O)c1", "Kd": "> 4 mM (inactive)"}, {"smiles": "N#Cc1cnn2c(C(F)(F)F)cc(C(F)(F)F)nc12", "Kd": "> 4 mM (inactive)"}, {"smiles": "O=C(NC1CCS(=O)(=O)C1)c1cccs1", "note": "(centres undefined)", "Kd": "> 4 mM (inactive)"}, {"smiles": "c1ccc(NCc2nc(-c3ccccc3)no2)cc1", "Kd": "> 4 mM (inactive)"}, {"smiles": "CC1(C)C[C@@H]2C(=O)CC[C@H]3O[C@]3(C)CC[C@H]21", "Kd": "> 4 mM (inactive)"}, {"smiles": "CC(=O)N1CCN(S(=O)(=O)c2ccccc2)CC1", "Kd": "> 4 mM (inactive)"}, {"smiles": "Cc1nc2nc(Cc3ccccc3)nn2c(C)c1Cl", "Kd": "> 4 mM (inactive)"}, {"smiles": "Cn1cnc2c(Cl)ncnc21", "Kd": "> 4 mM (inactive)"}, {"smiles": "COC(=O)[C@]1(C)CC[C@]2(C)CC[C@]3(C)C4=CC=C5C(=CC(=O)C(O)=C5C)[C@]4(C)CC[C@@]3(C)[C@@H]2C1", "Kd": "> 4 mM (inactive)"}, {"smiles": "Nc1cccc2cccnc12", "Kd": "> 4 mM (inactive)"}, {"smiles": "CC(C)(O)CC[C@@H](O)[C@](C)(O)C1CC[C@@]2(O)C3=CC(=O)C4C[C@@H](O)[C@@H](O)C[C@]4(C)C3CC[C@]12C", "note": "(some centres undefined)", "Kd": "> 4 mM (inactive)"}, {"smiles": "Cn1nnc2c(N3CCC(C(N)=O)CC3)ncnc21", "Kd": "> 4 mM (inactive)"}, {"smiles": "O=C(COc1ccccc1O)NCCO", "Kd": "> 4 mM (inactive)"}, {"smiles": "CSCCNC(C)=O", "Kd": "> 4 mM (inactive)"}, {"smiles": "Cc1cc(NC(=O)Cc2cccs2)no1", "Kd": "> 4 mM (inactive)"}, {"smiles": "NS(=O)(=O)c1ccc(N=Cc2ccc[nH]2)cc1", "Kd": "> 4 mM (inactive)"}, {"smiles": "Cc1cc(NS(=O)(=O)Cc2ccccc2)no1", "Kd": "> 4 mM (inactive)"}, {"smiles": "O=C(O)C1CCN(S(=O)(=O)c2cccs2)CC1", "Kd": "> 4 mM (inactive)"}, {"smiles": "NC(=O)NC1C=CS(=O)(=O)C1", "note": "(centres undefined)", "Kd": "> 4 mM (inactive)"}]}]}
